Structures can show the parent of a compound that is named as a salt.
Legend:
[1] = system: ENR+CD organoids (ISC to Paneth cell differentiation); assay: Secondary (validation) screen: LYZ.S CCh-stimulated lysozyme secretion, 2.5-D 384-well ENR+CD organoids; format: cell-based, mouse; conditions: 6-day ENR+CD, vs ENR+CD+DMSO
ENR+CD organoids [2] = assay: Secondary (validation) screen: ATP (CTG) assay, 2.5-D 384-well ENR+CD organoids; format: cell-based, mouse; conditions: 6-day ENR+CD, vs ENR+CD+DMSO
[3] = system: ENR+CD organoids (ISC to Paneth cell differentiation); assay: Secondary (validation) screen: LYZ.NS basal lysozyme secretion, 2.5-D 384-well ENR+CD organoids; format: cell-based, mouse; conditions: 6-day ENR+CD, vs ENR+CD+DMSO
[4] = system: ENR+CD organoids (ISC to Paneth cell differentiation); assay: Primary screen: CCh-stimulated lysozyme secretion LYZ.S, 2.5-D 384-well ENR+CD organoid differentiation; format: cell-based, mouse; conditions: primary screen, FC relative to plate median
Excerpt: (§1) High-throughput screening.

[5] = system: ENR+CD organoids (ISC to Paneth cell differentiation); assay: Primary screen: basal (non-stimulated) lysozyme secretion LYZ.NS, 2.5-D 384-well ENR+CD organoid differentiation; format: cell-based, mouse; conditions: for primary screen hit call (SSMD and z-scored FC cutoffs in both LYZ assays): LYZ.NS and LYZ.S, 0.08-10 uM, 6 days ENR+CD; for Dose.FC.LYZ.NS: FC relative to plate median; for Z.LYZ.NS: standard z score
Excerpt: as §1

ENR+CD organoids [6] = assay: Primary screen: ATP (CellTiter-Glo 3D, CTG) cell number/viability, 2.5-D 384-well ENR+CD organoids; conditions: primary screen; for Dose.FC.CTG: FC relative to plate median; for Z.CTG: standard z score;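 for all read-outs here: compounds given at plating and again on day 3 over a 6-day differentiation from ENR+CV stem-cell-enriched precursors, ATP measured on day 6, plate median as control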

NC(=O)c1ccc(-c2nc(-c3ccccn3)c(-c3ccc4c(c3)OCO4)[nH]2)cc1 [SB431542]
Dose.FC.LYZ.S ([1]; 0.06 uM): 0.067 log2 fold change
Z.LYZ.S ([1]; 0.06 uM): 0.514
repSSMD.LYZ.S ([1]; 0.06 uM): 0.855
Dose.FC.LYZ.S ([1]; 0.24 uM): 0.027 log2 fold change
Z.LYZ.S ([1]; 0.24 uM): 0.211
repSSMD.LYZ.S ([1]; 0.24 uM): 0.301
Dose.FC.LYZ.S ([1]; 0.48 uM): −0.050 log2 fold change
Z.LYZ.S ([1]; 0.48 uM): −0.387
repSSMD.LYZ.S ([1]; 0.48 uM): −0.449
Dose.FC.LYZ.S ([1]; […]): 0.072 log2 fold change
Dose.FC.CTG (ENR+CD organoids [2]; 0.06 uM): 0.160 log2 fold change
Z.CTG (ENR+CD organoids [2]; 0.06 uM): 1.439
repSSMD.CTG (ENR+CD organoids [2]; 0.06 uM): 0.654
Dose.FC.CTG (ENR+CD organoids [2]; 0.24 uM): 0.023 log2 fold change
Z.CTG (ENR+CD organoids [2]; 0.24 uM): 0.206
repSSMD.CTG (ENR+CD organoids [2]; 0.24 uM): 0.141
Dose.FC.CTG (ENR+CD organoids [2]; 0.48 uM): 0.083 log2 fold change
Z.CTG (ENR+CD organoids [2]; 0.48 uM): 0.752
repSSMD.CTG (ENR+CD organoids [2]; 0.48 uM): 0.527
Dose.FC.CTG (ENR+CD organoids [2]; […]): 0.120 log2 fold change
Dose.FC.LYZ.NS ([3]; 0.06 uM): 0.089 log2 fold change
Z.LYZ.NS ([3]; 0.06 uM): 0.709
repSSMD.LYZ.NS ([3]; 0.06 uM): 1.073
Dose.FC.LYZ.NS ([3]; 0.24 uM): 0.105 log2 fold change
Z.LYZ.NS ([3]; 0.24 uM): 0.838
repSSMD.LYZ.NS ([3]; 0.24 uM): 0.830
Dose.FC.LYZ.NS ([3]; 0.48 uM): −0.016 log2 fold change
Z.LYZ.NS ([3]; 0.48 uM): −0.128
repSSMD.LYZ.NS ([3]; 0.48 uM): −0.149
Dose.FC.LYZ.NS ([3]; […]): 0.116 log2 fold change
Dose.FC.LYZ.S ([4]; dose 0.08 uM): 0.135 log2 fold change
Dose.FC.LYZ.S ([4]; dose 0.40 uM): 0.309 log2 fold change
Dose.FC.LYZ.S ([4]; dose 2.00 uM): 0.223 log2 fold change
Dose.FC.LYZ.S ([4]; dose 10.00 uM): 0.126 log2 fold change
primary screen hit call (SSMD and z-scored FC cutoffs in both LYZ assays) [5]: selected as a hit
performance on both LYZ assays compared with LY215799 ([5]; primary screen): performed almost identically to LY215799
Dose.FC.LYZ.NS ([5]; primary screen, dose 0.08 uM): 0.141 log2 fold change
Z.LYZ.NS ([5]; primary screen, dose 0.08 uM): 1.225
Dose.FC.LYZ.NS ([5]; primary screen, dose 0.40 uM): 0.174 log2 fold change
Z.LYZ.NS ([5]; primary screen, dose 0.40 uM): 1.514
Dose.FC.LYZ.NS ([5]; primary screen, dose 2.00 uM): 0.187 log2 fold change
Z.LYZ.NS ([5]; primary screen, dose 2.00 uM): 1.632
Dose.FC.LYZ.NS ([5]; primary screen, dose 10.00 uM): 0.040 log2 fold change
Z.LYZ.NS ([5]; primary screen, dose 10.00 uM): 0.346
increase of cell viability compared with LY215799 (ENR+CD organoids [6]): outperformed LY215799
Dose.FC.CTG (ENR+CD organoids [6]; dose 0.08 uM): 0.380 log2 fold change
Z.CTG (ENR+CD organoids [6]; dose 0.08 uM): 0.907
Dose.FC.CTG (ENR+CD organoids [6]; dose 0.40 uM): 0.473 log2 fold change
Z.CTG (ENR+CD organoids [6]; dose 0.40 uM): 1.130
Dose.FC.CTG (ENR+CD organoids [6]; dose 2.00 uM): 0.316 log2 fold change
Z.CTG (ENR+CD organoids [6]; dose 2.00 uM): 0.754
Dose.FC.CTG (ENR+CD organoids [6]; dose 10.00 uM): 0.155 log2 fold change
Z.CTG (ENR+CD organoids [6]; dose 10.00 uM): 0.370

C[C@H](NCc1ccc(OCc2cccc(F)c2)cc1)C(N)=O [Safinamide Mesylate, reference compound]
Dose.FC.LYZ.S ([1]; 0.50 uM): −0.213 log2 fold change
Dose.FC.LYZ.S ([1]; 1.00 uM): −0.294 log2 fold change
Dose.FC.LYZ.S ([1]; 2.00 uM): −0.099 log2 fold change
Dose.FC.LYZ.S ([1]; 4.00 uM): −0.086 log2 fold change
Dose.FC.CTG (ENR+CD organoids [2]; 0.50 uM): −0.014 log2 fold change
Dose.FC.CTG (ENR+CD organoids [2]; 1.00 uM): −0.082 log2 fold change
Dose.FC.CTG (ENR+CD organoids [2]; 2.00 uM): −0.011 log2 fold change
Dose.FC.CTG (ENR+CD organoids [2]; 4.00 uM): −0.002 log2 fold change
Dose.FC.LYZ.NS ([3]; 0.50 uM): −0.156 log2 fold change
Dose.FC.LYZ.NS ([3]; 1.00 uM): −0.231 log2 fold change
Dose.FC.LYZ.NS ([3]; 2.00 uM): −0.046 log2 fold change
Dose.FC.LYZ.NS ([3]; 4.00 uM): −0.034 log2 fold change
Dose.FC.LYZ.S ([4]; dose 0.08 uM): 0.302 log2 fold change
Dose.FC.LYZ.S ([4]; dose 0.40 uM): 0.191 log2 fold change
Dose.FC.LYZ.S ([4]; dose 2.00 uM): 0.236 log2 fold change
Dose.FC.LYZ.S ([4]; dose 10.00 uM): 0.143 log2 fold change
primary screen hit call (SSMD and z-scored FC cutoffs in both LYZ assays) [5]: sole hit in their respective pathway
Dose.FC.LYZ.NS ([5]; primary screen, dose 0.08 uM): 0.160 log2 fold change
Z.LYZ.NS ([5]; primary screen, dose 0.08 uM): 1.394
Dose.FC.LYZ.NS ([5]; primary screen, dose 0.40 uM): 0.093 log2 fold change
Z.LYZ.NS ([5]; primary screen, dose 0.40 uM): 0.814
Dose.FC.LYZ.NS ([5]; primary screen, dose 2.00 uM): 0.174 log2 fold change
Z.LYZ.NS ([5]; primary screen, dose 2.00 uM): 1.518
Dose.FC.LYZ.NS ([5]; primary screen, dose 10.00 uM): 0.057 log2 fold change
Z.LYZ.NS ([5]; primary screen, dose 10.00 uM): 0.499
Dose.FC.CTG (ENR+CD organoids [6]; dose 0.08 uM): 0.265 log2 fold change
Dose.FC.CTG (ENR+CD organoids [6]; dose 0.40 uM): 0.241 log2 fold change
Dose.FC.CTG (ENR+CD organoids [6]; dose 2.00 uM): 0.263 log2 fold change
Dose.FC.CTG (ENR+CD organoids [6]; dose 10.00 uM): 0.369 log2 fold change

Reference: patent US20220323406A1, “METHODS AND COMPOSITIONS FOR DIFFERENTIATING STEM CELLS” (Massachusetts Institute of Technology, priority 2019, published 2022)
